The test system of data set [1] is male suffering from impotence, which is substantially only neurogenic or psychogenic. Conditions: cited from earlier work; for erection after intracavernosal injection where severe atherosclerosis is not involved (background): injection into a corpus cavernosum.
Data set [2] relates to males suffering from impotence of which severe atherosclerosis is a cause. Conditions: background statement; cited from earlier work.
In data set [3] the test system is human males. Conditions: cited from earlier work; for priapism (background): treatment of impotence.
In data set [4] the test system is male suffering from impotence, which is substantially only neurogenic or psychogenic. Description: Intracavernosal injection coupled with sexual stimulation in males with impotence that is substantially only neurogenic or psychogenic. In kind it is in vivo, human. Conditions: for time to erection sufficient for vaginal penetration: 1 ml of 30 μg/ml in phosphate buffered saline, after tourniquet release (5-10 minutes after injection) and sexual stimulation; for dose with which virtually all males achieve an erection sufficient for vaginal penetration: intracavernosal injection in physiologically acceptable diluent; for dose with which virtually all males achieve an erection sufficient for vaginal penetration / dose as low as which many males achieve an erection sufficient for vaginal penetration: coupled with sexual stimulation; for dose as low as which many males achieve an erection sufficient for vaginal penetration: intracavernosal injection.
Protocol: A preferred composition to effect an erection in male suffering from impotence, which is substantially only neurogenic or psychogenic, in accord with the methods herein, is a solution of PHM or VIP at 30 μg/ml in phosphate buffered saline at pH between about 2 and about 4.5, preferably between about 2 and about 3.5 and most preferably about 3, with the PHM or VIP the only substance in the solution that is pharmacologically active in inducing an erection. Preferably 1 ml of the preferred composition is administered as a bolus by injection into a corpus cavernosum while the penis is constricted at its base with a tourniquet. About 5-10 minutes after the injection, the tourniquet is released and, if not already started before the tourniquet is released, sexual stimulation is begun. […] The composition, however, the time between administration and sexual stimulation may be longer, if necessary.

Data set [5] concerns males suffering from impotence of which severe atherosclerosis is a cause. The experiment in a line: Intracavernosal injection coupled with sexual stimulation in males with impotence of which severe atherosclerosis is a cause. Format: in vivo, human. The procedure: To minimize side-effects when VIP is employed in such a composition, it is preferred that less than about 60 μg of VIP be administered.
Thus, between about 0. […] If necessary, the time between injection and sexual stimulation may be longer, up to several hours.

The subject of data set [6] is human males. The experiment in a line: Side effects of intracavernosal injection to induce an erection. In kind it is in vivo.
Data set [7] has as its system normal male (males not suffering from erectile insufficiency). Conditions: cited from earlier work.

Entries after “also recorded” stand apart in the source; their conditions may differ. Where no end group is shown, it is not given here.

For `CC(COc1ccccc1)N(CCCl)Cc1ccccc1` (centres unmarked) [phenoxybenzamine], in data set [1], the “erection after intracavernosal injection where severe atherosclerosis is not involved (background)” value is “cause an erection sufficient for vaginal penetration”. Besides, the “induction of erection in impotence due to severe atherosclerosis (background)” value (shortened to “induction of erection in impotence due”) in data set [2] is listed as “not susceptible to treatment”. In addition, the “carcinogenicity (background)” value with human males [3] (in vivo) is recorded as “is a carcinogen”. In addition, the “priapism (background)” value in the data set with human males [3] is on record as “often results in priapism”.
With `COc1ccc(Cc2nccc3cc(OC)c(OC)cc23)cc1OC` [papaverine], the “erection after intracavernosal injection where severe atherosclerosis is not involved (background)” value in data set [1] is listed as “cause an erection sufficient for vaginal penetration”. Moreover, the “induction of erection in impotence due” value in data set [2] is “ineffective; also recorded: not susceptible to treatment”. In the data set on human males [3] (intracavernosal use), the “pain on injection (background)” value is on record as “painful, burning sensation in the first two or so minutes after the injection”. The “fibrosis on repeated use (background)” value in the data set on human males [3] (repeated use) is “undesirable, extensive intracavernous fibrosis”. Besides, the “priapism (background)” value in the data set on human males [3] was “often results in priapism”.
On to “peptide N-terminal histidine C-terminal methionineamide (HADGVFTSDFSKLLGQLSAKKYLESLM-NH2; UniProt P01282 81-107, looked up) [PHM]”, for which, in data set [4], the “time to erection sufficient for vaginal penetration” value was not above 5 min, the “dose with which virtually all males achieve an erection sufficient for vaginal penetration” value is 30 µg and the “dose as low as which many males achieve an erection sufficient for vaginal penetration” value worked out at 10 µg. Besides, in data set [4] (at the same dosage), the “duration of pharmacological effect compared with VIP” value is “somewhat longer lasting pharmacological effect than VIP”. In data set [5], the “induction of erection in impotence caused by severe atherosclerosis” value is given as “not effective in inducing erections”. In the data set on human males [6] (induction of an erection with VIP or PHM by intracavernosal injection), the priapism result is “does not entail priapism; also recorded: Priapism does not occur”.
“human vasoactive intestinal peptide [VIP]”: in data set [4], the “time to erection sufficient for vaginal penetration” value is not above 5 min, the “dose with which virtually all males achieve an erection sufficient for vaginal penetration” value turned out to be 30 µg and the “dose as low as which many males achieve an erection sufficient for vaginal penetration” value is 10 µg. Also, the “induction of erection in impotence caused by severe atherosclerosis” value in data set [5] is reported as “not effective in inducing erections”. Also, the “side-effects observed at higher doses” value in the data set with human males [6] (in vivo) is “hypotension, increased pulse rate, flushing of the face and trunk”. Moreover, the “erectile response coupled with visual and/or vibratory sexual stimulation” value in data set [7] (as little as 1 μm (at 1 μm/ml of diluent) injected into a corpus cavernosum) was “facilitates full erection”. For the same compound, in data set [7] (injection of up to 20 μm of VIP (at 20 μm/ml of diluent) into a corpus cavernosum, no sexual stimulation), the “erectile response without sexual stimulation” value is “only slight swelling (slight tumescence) of the penis but not an erection”. The “induction of erection in impotence due” value in data set [2] was “does not induce erections”.
Take `Cc1ccc(N(CC2=NCCN2)c2cccc(O)c2)cc1` [phentolamine]: the “erection after intracavernosal injection where severe atherosclerosis is not involved (background)” value in data set [1] is “causes an erection sufficient for vaginal penetration”. For the same compound, the “duration of resulting erection (background)” value in data set [1] (intracavernosal injection, severe atherosclerosis not a cause) is given as “significantly shorter duration than that induced by intracavernosal injection of papaverine or phenoxybenzamine”. Besides, the “induction of erection in impotence due” value in data set [2] is “not susceptible to treatment”.
